Results published in patent US5147866A, “1,2-diamino-cyclobuten-3,4-dione derivatives” (Beecham Group p.l.c., priority 1989, dated 1992).

Legend:
[1] = tested on: guinea-pig isolated trachealis; test: Bronchodilator activity: inhibition of spontaneous tone in guinea-pig isolated trachealis; conditions: Cavia porcellus; tracheal spirals, Krebs solution 37° C.; relaxation as percentage of total relaxation with 10^-3 M isoprenaline
Protocol: Male guinea pigs (300-600 g) were stunned by a blow to the head and bled from the carotid artery. The trachea was exposed, dissected free of connective tissue, and transferred to oxygenated Krebs solution at 37° C. Next, spirals (2 per trachea) were prepared by cutting the whole trachea spirally along its longitudinal axis and then dividing this spiral lengthwise. Each preparation was mounted, using silk thread, in a 10 ml organ bath filled with Krebs solution at 37° C. and bubbled with 5% CO2 with O2. The resting tension of the preparations was set at 2 g and changes in muscle tension were monitored isometrically by means of a UFI (2 oz) force and displacement transducer (Ormed Ltd) connected to a Linseis pen recorder. All preparations were allowed to equilibrate for 60 minutes. During this equilibration period the preparations were washed by upward displacement at 15 minute intervals and, if necessary, the resting tension was readjusted to 2 g using a mechanical micromanipulator system.
Once a steady resting tension had been obtained, the preparations were dosed […] with the test compound (10^-8 -2×10^-5 M), and finally a maximum relaxation achieved by addition of 10^-3 M isoprenaline. The fall in tension evoked by the test compound was expressed as a percentage of the total relaxation evoked in the presence of […]. Appropriate concentration-relaxation curves were then constructed and values for potency (IC50) were obtained.
[The composition of Krebs solution is: sodium chloride 118.07 mM, sodium hydrogen carbonate 26.19 mM, potassium chloride 4.68 mM, potassium orthophosphate 1.18 mM, magnesium sulphate septahydrate 1.8 mM and calcium chloride 2.52 mM;pH ca. 7.45.]

[2] = Antihypertensive activity: systolic blood pressure, tail cuff method, spontaneously hypertensive rats; format: in vivo; conditions: spontaneously hypertensive rats (systolic blood pressure >180 mmHg)
Protocol: Systolic blood pressures were recorded by a modification of the tail cuff method described by I. M. Claxton, M. G. Palfreyman, R. H. Poyser, R. L. Whiting, European Journal of Pharmacology, 37, 179 (1976). A W+W BP recorder, model 8005 was used to display pulses. Prior to all measurements rats were placed in a heated environment (33.5°±0.5° C.) before transfer to a restraining cage. Each determination of blood pressure was the mean of at least 5 readings. Spontaneously hypertensive rats (ages 12-18 weeks) with systolic blood pressures >180 mmHg were considered hypertensive.

Row | IC50 [1] | SMILES | lowers blood pressure by ([2]; 3 mg/kg p.o.) | lowers blood pressure by ([2]; 0.05 mg/Kg p.o.)
1 | 3.7 µM | CC1(C)Oc2ccc(C#N)cc2[C@@H](Nc2c(N)c(=O)c2=O)[C@@H]1O (relative stereo) [Example 1] | 50% | 
2 | 4 µM | CNc1c(N[C@@H]2c3cc(C#N)ccc3OC(C)(C)[C@H]2O)c(=O)c1=O (relative stereo) [Example 2] | 17% | 
3 |  | CCc1ccc2c(c1)[C@@H](N(C)c1c(N)c(=O)c1=O)[C@H](O)C(C)(C)O2 [Example 12, trans-(3S,4R)-N^1-[4-(6-Ethyl-3,4-dihydro-2,2-dimethyl-2H-1-benzopyran-3-ol)]-2-amino-1-methylaminocyclobutene-3,4-dione] |  | 24%
4 | 3.1 µM | CN(c1c(N)c(=O)c1=O)[C@@H]1c2cc(C#N)ccc2OC(C)(C)[C@H]1O (relative stereo) [Example 3, trans-N'-[4-(6-Cyano-3,4-dihydro-2,2-dimethyl-2H-1-benzopyran-3-ol)]-2-amino-1-methylaminocyclobutene-3,4-dione] | 58% | 
